This assay concerns the target NANOLUC® enzyme (Oplophorus gracilirostris, UniProt Q9GV45, A31E/A60N/A81I/F95D/I117V/K70R/L54V/L99Q/M102K/N193R/P142E/Q151K/Q38R/Q45L/V71I/Y165I). As to the kind of experiment: Inhibitor IC50 determination (NANOLUC enzyme, furimazine). It counts as biochemical. Conditions: IC50 (uM), 0.4 ng/ml NANOLUC enzyme, final furimazine 10 uM (at Km). As for the experimental part: The following example provides the IC50 values for the compounds disclosed herein. See Table 5 NANOLUC® enzyme was diluted to 0.4 ng/ml in CO2 independent media+10% FBS to make the detection reagent. A 3× dilution series of each inhibitor was then made in the detection reagent. A “no inhibitor” control was also made for each sample. 50 ul of each inhibitor dilution was mixed with 50 ul of NanoGlo buffer containing 20 uM furimazine. (Final furimazine concentration is 10 uM which is at Km.), and luminescence measured. Each sample was normalized to the “no inhibitor” control. The […] values were then determined using GraphPad Prism (log [inhibitor] vs. normalized response).

“And” between values parts separate entries of the source, which are not always exact repeats. Identical values can stand only once. Counter-ions that a name gives are not always drawn.

Chain of NANOLUC® enzyme (Q9GV45 28-196 with tags or gaps with the stated changes limits assumed): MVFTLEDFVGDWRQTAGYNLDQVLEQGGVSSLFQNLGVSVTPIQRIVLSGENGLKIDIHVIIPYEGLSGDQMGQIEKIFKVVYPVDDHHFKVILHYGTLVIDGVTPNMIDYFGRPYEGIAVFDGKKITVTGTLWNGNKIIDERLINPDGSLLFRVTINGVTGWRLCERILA

Usually IC50 stands for the point on the concentration scale where inhibition reaches its midpoint. For the compound `CCc1cccc(N(CC)C(=O)Cn2c(C(=O)N[C@H]3CC[C@H](C(=O)NCCCCCCS(=O)(=O)O)CC3)cc3ccccc32)c1` [JRW-0434, Sodium 6-(trans-4-(1-(2-(ethyl(3-ethylphenyl)amino)-2-oxoethyl)-1H-indole-2-carboxamido)cyclohexane-1-carboxamido)hexane-1-sulfonate], inhibition was half-maximal at 0.0019 µM (IC50).

`CCN(C(=O)Cn1c(C(=O)NC2CCN(C(=O)CCCCC(=O)O)CC2)cc2sccc21)c1cccc(C)c1` [JRW-0208, 6-(4-(4-(2-(ethyl(m-tolyl)amino)-2-oxoethyl)-4H-thieno[3,2-b]pyrrole-5-carboxamido)piperidin-1-yl)-6-oxohexanoic acid] came in with an IC50 of 0.82 µM.

The compound `CCCCCCN(C(=O)Cn1c(C(=O)NC2CCCCC2)cc2sccc21)c1cccc(C)c1` [JRW-0148, N-cyclohexyl-4-(2-(hexyl(m-tolyl)amino)-2-oxoethyl)-4H-thieno[3,2-b]pyrrole-5-carboxamide] displayed an IC50 of 5.3 µM.

`CCc1cccc(N(CC)C(=O)Cn2c(C(=O)N[C@H]3CC[C@H](C(=O)NCCCCCCS(=O)(=O)O)CC3)cc3sccc32)c1` [JRW-0432, Sodium 6-(trans-4-(4-(2-(ethyl(3-ethylphenyl)amino)-2-oxoethyl)-4H-thieno[3,2-b]pyrrole-5-carboxamido)cyclohexane-1-carboxamido)hexane-1-sulfonate] showed an IC50 of 0.0031 µM.

For the compound `CCN(C(=O)Cn1c(C(=O)N[C@H]2CC[C@H](C(=O)OC)CC2)cc2sccc21)c1cccc(CO)c1` [JRW-0461, Methyl trans-4-(4-(2-(ethyl(3-(hydroxymethyl)phenyl)amino)-2-oxoethyl)-4H-thieno[3,2-b]pyrrole-5-carboxamido)cyclohexane-1-carboxylate], 0.077 µM corresponded to half-maximal inhibition (IC50).

The compound `CCN(C(=O)Cn1c(C(=O)N[C@H]2CC[C@H](C(=O)O)CC2)cc2sccc21)c1cccc(C)c1` [JRW-0034, trans-4-(4-(2-(ethyl(m-tolyl)amino)-2-oxoethyl)-4H-thieno[3,2-b]pyrrole-5-carboxamido)cyclohexane-1-carboxylic acid] returned an IC50 of 0.059 µM. This IC50 and that of the compound before are within 1.5-fold of each other.

Compound `CCN(C(=O)Cn1cccc1C(=O)N[C@H]1CC[C@H](C(=O)OC)CC1)c1cccc(C)c1` [JRW-0456, Methyl trans-4-(1-(2-(ethyl(m-tolyl)amino)-2-oxoethyl)-1H-pyrrole-2-carboxamido)cyclohexane-1-carboxylate] showed an IC50 of 7.4 µM. This IC50 is about 130-fold higher than that of the compound before.

`CCN(C(=O)Cn1c(C(=O)NCCCCCCCC(=O)O)cc2sccc21)c1cccc(C)c1` [JRW-0198, 8-(4-(2-(ethyl(m-tolyl)amino)-2-oxoethyl)-4H-thieno[3,2-b]pyrrole-5-carboxamido)octanoic acid] yielded an IC50 of 1 µM.

`CCN(C(=O)Cn1c(C(=O)N[C@H]2CC[C@H](C(=O)NCCO)CC2)cc2sccc21)c1cccc(C)c1` [JRW-0043, 4-(2-(ethyl(m-tolyl)amino)-2-oxoethyl)-N-(trans-4-((2-hydroxyethyl)carbamoyl)cyclohexyl)-4H-thieno[3,2-b]pyrrole-5-carboxamide] gave an IC50 of 0.84 µM.

For the compound `CCN(C(=O)Cn1c(C(=O)N[C@H]2CC[C@H](C(N)=O)CC2)cc2sccc21)c1cccc(C)c1` [JRW-0052, N-(trans-4-carbamoylcyclohexyl)-4-(2-(ethyl(m-tolyl)amino)-2-oxoethyl)-4H-thieno[3,2-b]pyrrole-5-carboxamide], the IC50 amounted to 1.3 µM. This IC50 lies about 1.5-fold higher than the previous one.

Turning to `CCN(C(=O)Cn1c(C(=O)Nc2ccccc2)cc2sccc21)c1cccc(C)c1` [JRW-0143, 4-(2-(ethyl(m-tolyl)amino)-2-oxoethyl)-N-phenyl-4H-thieno[3,2-b]pyrrole-5-carboxamide], the concentration for half-maximal inhibition (IC50) was 2.8 µM and 2.6 µM.

`CCN(C(=O)Cn1c(C(=O)N[C@H]2CC[C@H](C(=O)OC)CC2)cc2sccc21)c1ccc(C)cc1` [JRW-0334, Methyl trans-4-(4-(2-(ethyl(p-tolyl)amino)-2-oxoethyl)-4H-thieno[3,2-b]pyrrole-5-carboxamido)cyclohexane-1-carboxylate] gave an IC50 of 1.3 µM. This lies in the single-digit micromolar range.

The compound `CCN(C(=O)Cn1c(C(=O)N[C@H]2CC[C@H](C(=O)NCCCCCCN)CC2)cc2sccc21)c1cccc(C)c1` [JRW-0241, N-(trans-4-((6-aminohexyl)carbamoyl)cyclohexyl)-4-(2-(ethyl(m-tolyl)amino)-2-oxoethyl)-4H-thieno[3,2-b]pyrrole-5-carboxamide hydrochloride] showed an IC50 of 0.063 µM.

The compound `CCN(C(=O)Cn1c(C(=O)N[C@H]2CC[C@H](C(=O)OC)CC2)cc2sccc21)c1ccccc1C` [JRW-0330, Methyl trans-4-(4-(2-(ethyl(o-tolyl)amino)-2-oxoethyl)-4H-thieno[3,2-b]pyrrole-5-carboxamido)cyclohexane-1-carboxylate] showed a half-inhibitory concentration (IC50) of 0.7 µM.

`CCc1cccc(N(CC)C(=O)Cn2c(C(=O)N[C@H]3CC[C@H](C(=O)NCCCCCCO)CC3)cc3sccc32)c1` [JRW-0429, 4-(2-(Ethyl(3-ethylphenyl)amino)-2-oxoethyl)-N-(trans-4-((6-hydroxyhexyl)carbamoyl)cyclohexyl)-4H-thieno[3,2-b]pyrrole-5-carboxamide] gave an IC50 of 0.0021 µM.

With `CCN(C(=O)Cn1c(C(=O)N[C@H]2CC[C@H](C(=O)OC)CC2)cc2sccc21)c1cccc(C(C)C)c1` [JRW-0460, Methyl trans-4-(4-(2-(ethyl(3-isopropylphenyl)amino)-2-oxoethyl)-4H-thieno[3,2-b]pyrrole-5-carboxamido)cyclohexane-1-carboxylate], the IC50 was 0.12 µM.

In the case of `CCc1cccc(N(CC)C(=O)Cn2c(C(=O)N[C@H]3CC[C@H](C(=O)OC)CC3)cc3ccccc32)c1` [JRW-0424, Methyl trans-4-(1-(2-(ethyl(3-ethylphenyl)amino)-2-oxoethyl)-1H-indole-2-carboxamido)cyclohexane-1-carboxylate], the IC50 was 0.005 µM.

In turn, `CCN(C(=O)Cn1c(C(=O)N[C@H]2CC[C@H](C(=O)NCCCCCCCC(=O)O)CC2)cc2sccc21)c1cccc(C)c1` [JRW-0188, 8-(trans-4-(4-(2-(ethyl(m-tolyl)amino)-2-oxoethyl)-4H-thieno[3,2-b]pyrrole-5-carboxamido)cyclohexane-1-carboxamido)octanoic acid] came in with an IC50 of 0.022 µM.

For `CCN(C(=O)Cn1c(C(=O)Nc2cccc(C(=O)OC)c2)cc2sccc21)c1cccc(C)c1` [JRW-0151, methyl 3-(4-(2-(ethyl(m-tolyl)amino)-2-oxoethyl)-4H-thieno[3,2-b]pyrrole-5-carboxamido)benzoate], the IC50 was 7 µM.

With `CCN(C(=O)Cn1c(C(=O)N[C@H]2CC[C@H](C(=O)OC)CC2)cc2occc21)c1cccc(C)c1` [JRW-360, Methyl trans-4-(4-(2-(ethyl(m-tolyl)amino)-2-oxoethyl)-4H-furo[3,2-b]pyrrole-5-carboxamido)cyclohexane-1-carboxylate], the midpoint of inhibition, the IC50, lay at 0.61 µM. This IC50 lies about 11-fold lower than the previous one.

Turning to `CCN(C(=O)Cn1c(C(=O)NC[C@H]2CC[C@H](C(=O)NCCCCCC(=O)O)CC2)cc2sccc21)c1cccc(C)c1` [JRW-0268, 6-(trans-4-((4-(2-(ethyl(m-tolyl)amino)-2-oxoethyl)-4H-thieno[3,2-b]pyrrole-5-carboxamido)methyl)cyclohexane-1-carboxamido)hexanoic acid], the IC50 stood at 4.3 µM.

Regarding `CCN(C(=O)Cn1c(C(=O)N[C@H]2CC[C@H](C(=O)OC)CC2)cc2ccsc21)c1cccc(C)c1` [JRW-0463, Methyl trans-4-(6-(2-(ethyl(m-tolyl)amino)-2-oxoethyl)-6H-thieno[2,3-b]pyrrole-5-carboxamido)cyclohexane-1-carboxylate], the IC50 was determined as 0.71 µM.

`CCN(C(=O)Cn1c(C(=O)N[C@H]2CC[C@H](C(=O)OC)CC2)cc2sccc21)c1cccc(CBr)c1` [JRW-0466, Methyl trans-4-(4-(2-((3-(bromomethyl)phenyl)(ethyl)amino)-2-oxoethyl)-4H-thieno[3,2-b]pyrrole-5-carboxamido)cyclohexane-1-carboxylate] yielded an IC50 of 0.0018 µM.

For `CCc1cccc(N(CC)C(=O)Cn2c(C(=O)N[C@H]3CC[C@H](C(=O)OC)CC3)cc3sccc32)c1` [JRW-0326, Methyl trans-4-(4-(2-(ethyl(3-ethylphenyl)amino)-2-oxoethyl)-4H-thieno[3,2-b]pyrrole-5-carboxamido)cyclohexane-1-carboxylate], the IC50 was determined as 0.0039 µM. This IC50 is about 2.2-fold higher than that of the compound before.

In turn, `CCN(C(=O)Cn1c(C(=O)N[C@H]2CC[C@H](C(=O)OC)CC2)cc2sccc21)c1cccc(N(C)C)c1` [JRW-0478, Methyl trans-4-(4-(2-((3-(dimethylamino)phenyl)(ethyl)amino)-2-oxoethyl)-4H-thieno[3,2-b]pyrrole-5-carboxamido)cyclohexane-1-carboxylate] returned an IC50 of 0.065 µM.

For the compound `Cc1cccc(NC(=O)Cn2c(C(=O)NC3CCCCC3)cc3sccc32)c1` [JRW-0081, N-cyclohexyl-4-(2-oxo-2-(m-tolylamino)ethyl)-4H-thieno[3,2-b]pyrrole-5-carboxamide], the half-inhibitory concentration (IC50) was 19.4 µM. This IC50 lies about 300-fold higher than the previous one.

The compound `CCN(C(=O)Cn1c(C(=O)N[C@H]2CC[C@@H](C(=O)OC)CC2)cc2sccc21)c1cccc(C)c1` [JRW-0041, methyl-cis-4-(4-(2-(ethyl(m-tolyl)amino)-2-oxoethyl)-4H-thieno[3,2-b]pyrrole-5-carboxamido)cyclohexane-1-carboxylate] came in with a 50% inhibitory concentration (IC50) of 0.2 µM.

With `CCN(C(=O)Cn1c(C(=O)N2CCCCC2)cc2sccc21)c1cccc(C)c1` [JRW-0009, N-ethyl-2-(5-(piperidine-1-carbonyl)-4H-thieno[3,2-b]pyrrol-4-yl)-N-(m-tolyl)acetamide], the IC50 was determined as 2.7 µM. This IC50 is about 14-fold higher than that of the compound before.
